# What was measured:
# [1] = target: T1, skeletal muscle receptor (Homo sapiens, UniProt Q13698); assay: binding to the skeletal muscle 1,4-dihydropyridine receptor (radioligand dissociation); details: 37° C., read-out: dissociation rate constant (converted)
# T1 construct: dissociation rate constant (at 37° C.) of 0.070±0.01 min^-1 on skeletal muscle; from tissue
# [2] = test system: brain receptor; assay: binding to the brain 1,4-dihydropyridine receptor (radioligand dissociation); details: 37° C.
# T1 sequence (Q13698 whole entry): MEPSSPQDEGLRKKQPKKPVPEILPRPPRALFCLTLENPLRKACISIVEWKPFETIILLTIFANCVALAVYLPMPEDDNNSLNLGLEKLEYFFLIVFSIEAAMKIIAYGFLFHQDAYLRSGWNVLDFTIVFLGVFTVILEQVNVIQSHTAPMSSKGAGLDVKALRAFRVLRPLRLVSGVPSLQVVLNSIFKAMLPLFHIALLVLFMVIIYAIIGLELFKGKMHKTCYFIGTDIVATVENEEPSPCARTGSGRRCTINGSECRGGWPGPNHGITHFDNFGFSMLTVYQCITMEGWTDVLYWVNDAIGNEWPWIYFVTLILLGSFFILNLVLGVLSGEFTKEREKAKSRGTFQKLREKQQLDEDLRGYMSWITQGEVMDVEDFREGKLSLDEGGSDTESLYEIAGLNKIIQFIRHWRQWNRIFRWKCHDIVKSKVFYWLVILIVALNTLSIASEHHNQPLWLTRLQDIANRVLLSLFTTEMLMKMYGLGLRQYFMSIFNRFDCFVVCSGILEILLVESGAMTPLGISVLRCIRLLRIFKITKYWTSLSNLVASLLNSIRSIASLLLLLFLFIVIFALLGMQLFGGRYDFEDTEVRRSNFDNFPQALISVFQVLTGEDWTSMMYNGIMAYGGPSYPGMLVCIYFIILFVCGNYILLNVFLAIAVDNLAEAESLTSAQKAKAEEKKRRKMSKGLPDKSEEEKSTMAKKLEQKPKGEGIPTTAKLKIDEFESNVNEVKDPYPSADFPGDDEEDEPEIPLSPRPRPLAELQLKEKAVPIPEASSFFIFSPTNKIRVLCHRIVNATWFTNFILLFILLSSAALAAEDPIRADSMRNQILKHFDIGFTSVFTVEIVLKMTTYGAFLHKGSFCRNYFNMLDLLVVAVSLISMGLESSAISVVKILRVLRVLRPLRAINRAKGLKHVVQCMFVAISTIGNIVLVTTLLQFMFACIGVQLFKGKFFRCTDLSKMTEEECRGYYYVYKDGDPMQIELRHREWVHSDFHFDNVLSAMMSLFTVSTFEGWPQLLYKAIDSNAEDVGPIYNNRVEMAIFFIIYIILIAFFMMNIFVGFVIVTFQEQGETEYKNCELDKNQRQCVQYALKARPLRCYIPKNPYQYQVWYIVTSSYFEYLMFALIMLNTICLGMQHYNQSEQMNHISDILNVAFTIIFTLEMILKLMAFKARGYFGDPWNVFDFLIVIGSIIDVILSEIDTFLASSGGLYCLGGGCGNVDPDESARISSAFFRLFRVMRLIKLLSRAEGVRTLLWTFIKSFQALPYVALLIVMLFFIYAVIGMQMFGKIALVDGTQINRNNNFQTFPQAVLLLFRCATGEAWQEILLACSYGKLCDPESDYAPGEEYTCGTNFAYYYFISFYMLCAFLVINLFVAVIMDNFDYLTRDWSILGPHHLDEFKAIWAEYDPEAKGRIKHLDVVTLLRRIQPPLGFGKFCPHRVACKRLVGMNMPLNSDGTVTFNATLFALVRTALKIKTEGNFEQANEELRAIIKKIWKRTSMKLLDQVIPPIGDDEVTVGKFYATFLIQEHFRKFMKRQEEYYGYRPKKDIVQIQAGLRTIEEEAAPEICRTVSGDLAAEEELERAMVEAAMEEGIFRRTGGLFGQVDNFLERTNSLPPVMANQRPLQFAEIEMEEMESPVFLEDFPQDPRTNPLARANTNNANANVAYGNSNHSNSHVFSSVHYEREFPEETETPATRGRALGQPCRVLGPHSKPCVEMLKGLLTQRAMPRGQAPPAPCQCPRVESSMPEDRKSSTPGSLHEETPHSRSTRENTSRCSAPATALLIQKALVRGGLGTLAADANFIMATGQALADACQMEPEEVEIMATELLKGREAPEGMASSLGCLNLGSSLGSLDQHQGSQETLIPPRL
# T1 sequence (P54289 25-957 partner limits assumed): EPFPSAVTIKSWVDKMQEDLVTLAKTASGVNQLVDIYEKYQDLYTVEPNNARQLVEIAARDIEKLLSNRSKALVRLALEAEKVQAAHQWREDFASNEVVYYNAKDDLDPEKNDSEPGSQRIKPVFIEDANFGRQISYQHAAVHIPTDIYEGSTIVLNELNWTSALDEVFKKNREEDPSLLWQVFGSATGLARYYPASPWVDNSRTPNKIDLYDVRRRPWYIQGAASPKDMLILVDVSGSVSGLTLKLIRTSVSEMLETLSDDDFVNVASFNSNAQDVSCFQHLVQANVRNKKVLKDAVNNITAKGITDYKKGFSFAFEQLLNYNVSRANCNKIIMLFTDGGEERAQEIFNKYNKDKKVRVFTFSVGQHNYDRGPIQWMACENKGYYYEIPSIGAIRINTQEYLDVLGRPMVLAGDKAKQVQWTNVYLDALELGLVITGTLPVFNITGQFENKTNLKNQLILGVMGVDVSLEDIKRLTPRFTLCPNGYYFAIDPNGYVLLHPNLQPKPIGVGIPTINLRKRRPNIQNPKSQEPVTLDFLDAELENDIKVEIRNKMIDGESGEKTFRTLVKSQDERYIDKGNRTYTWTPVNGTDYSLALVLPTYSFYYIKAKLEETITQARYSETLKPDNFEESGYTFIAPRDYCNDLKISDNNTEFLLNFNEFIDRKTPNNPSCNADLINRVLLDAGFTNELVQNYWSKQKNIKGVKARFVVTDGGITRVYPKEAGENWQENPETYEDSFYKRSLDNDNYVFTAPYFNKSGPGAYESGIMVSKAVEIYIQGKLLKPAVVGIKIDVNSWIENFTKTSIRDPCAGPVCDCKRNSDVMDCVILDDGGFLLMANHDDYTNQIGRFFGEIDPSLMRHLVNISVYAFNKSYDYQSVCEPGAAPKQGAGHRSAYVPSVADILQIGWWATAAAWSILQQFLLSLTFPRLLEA
# T1 sequence (P54289 958-1103 partner limits assumed): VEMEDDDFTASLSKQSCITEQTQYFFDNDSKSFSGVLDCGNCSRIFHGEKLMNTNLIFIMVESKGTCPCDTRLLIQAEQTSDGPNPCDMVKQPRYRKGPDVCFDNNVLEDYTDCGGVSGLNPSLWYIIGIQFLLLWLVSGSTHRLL
# T1 sequence (Q02641 whole entry partner): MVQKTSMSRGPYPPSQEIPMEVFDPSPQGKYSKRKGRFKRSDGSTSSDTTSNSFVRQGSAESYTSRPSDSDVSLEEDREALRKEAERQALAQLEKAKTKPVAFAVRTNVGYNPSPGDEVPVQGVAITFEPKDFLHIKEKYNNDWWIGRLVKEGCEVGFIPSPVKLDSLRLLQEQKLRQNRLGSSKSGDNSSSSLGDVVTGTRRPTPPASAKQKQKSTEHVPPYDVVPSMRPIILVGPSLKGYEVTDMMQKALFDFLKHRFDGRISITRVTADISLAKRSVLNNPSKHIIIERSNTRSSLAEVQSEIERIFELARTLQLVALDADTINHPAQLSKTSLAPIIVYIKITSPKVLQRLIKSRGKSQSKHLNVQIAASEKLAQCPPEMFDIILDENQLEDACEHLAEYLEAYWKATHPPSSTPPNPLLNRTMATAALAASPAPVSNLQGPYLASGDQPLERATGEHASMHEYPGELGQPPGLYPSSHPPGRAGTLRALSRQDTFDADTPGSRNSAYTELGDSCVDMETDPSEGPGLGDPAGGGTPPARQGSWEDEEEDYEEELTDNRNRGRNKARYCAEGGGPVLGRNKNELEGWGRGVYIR
# T1 sequence (Q06432 whole entry partner): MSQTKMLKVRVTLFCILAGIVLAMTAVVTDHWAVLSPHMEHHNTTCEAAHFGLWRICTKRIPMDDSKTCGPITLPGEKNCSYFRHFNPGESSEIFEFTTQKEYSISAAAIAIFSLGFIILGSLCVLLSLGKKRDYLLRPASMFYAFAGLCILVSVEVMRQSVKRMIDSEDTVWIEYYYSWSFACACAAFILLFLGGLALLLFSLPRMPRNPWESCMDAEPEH
structure (smiles),measurement,setting,value
CCOC(=O)C1=C(C)NC(C)=C(C(=O)OCCNC(=O)[C@H](CC[35S]C)NC(=O)OC(C)(C)C)C1c1ccccc1C(F)(F)F (some centres unmarked) [Example 1],koff,[1],0.00117 s⁻¹
same,dissociation rate constant,[2],0.02 min⁻¹
